Experimental data taken from patent US20230330134A1, “METHOD OF PROPHYLAXIS OF CORONAVIRUS AND/OR RESPIRATORY SYNCYTIAL VIRUS INFECTION” (Starpharma Pty Ltd., priority 2020, published 2023).
Values joined by “and” are separate entries in the source; they are usually repeats but may differ in a detail not shown here. Equal values may be shown once. Read-outs that look alike come from different tables or passages of the source.

Experiments:
[1] = test system: SARS-CoV-2 (Wuhan-Hu-1) Spike-pseudotyped GFP reporter lentiviral particles; assay type: cell-based; settings: 10 and 30 mg/mL, added 1 hour prior
HCT-8 cells = settings: no virus
Calu-3 cells = settings: Day 4
[2] = test system: MERS-CoV (HCoV-EMC) Spike-pseudotyped GFP reporter lentiviral particles; assay type: cell-based
[3] = test system: SARS-CoV-2 (2019-nCoV/USA-WAl/2020 strain); assay type: in vivo, human ACE2 transgenic mice K18-hACE2; settings: 1%, 3% or 5% SPL7013 in PBS intranasally for 7 days (0.5, 1.5, 2.5 mg daily); significant vs control at the highest dose
[4] = test system: Coronavirus strain 229E (ATCC #VR-740); settings: final 28.76 mg/mL; for CPE in four replicates, Test: MRC-5
Vero cells = settings: no virus
[5] = test system: SARS-CoV-2 hCoV-19/Australia/VIC01/2020; experiment: microbe, parasite or virus in culture; assay type: cell-based
MRC-5 cells = settings: no virus
[6] = test system: SARS-CoV-2 (hCoV-19/Australia/VIC01/2020); settings: mixed with virus for 1 hour prior to infection of Vero E6 cells; n=1
[7] = Hygroscopic assessment (European Pharmacopoeia 5.11); assay type: physicochemical
Procedure: A hygroscopic assessment was performed as described in European Pharmacopoeia 5.11. Results from the assay are interpreted as follows: deliquescent -sufficient water is absorbed to form a liquid; very hygroscopic - increase in mass is equal to or greater than 15%; hygroscopic - increase in mass is less than 15% and equal to or greater than 2%; slightly hygroscopic - increase in mass is less than 2% and equal to or greater than 0.2% and not hygroscopic - if increase in mass is less than 0.2%, then the compound is not hygroscopic.

[8] = test system: Coronavirus strain OC43 (ZeptoMetrix Corp. #0810024CF); settings: final 28.76 mg/mL; for CPE in four replicates, Test: HCT-8
[9] = test system: SARS-CoV-1 (Urbani) Spike-pseudotyped GFP reporter lentiviral particles; assay type: cell-based
[10] = test system: Coronavirus strain NL63 (ZeptoMetrix Corp. #0810228CF); settings: final 28.76 mg/mL; for CPE in four replicates, Test: Vero
Hep-2 cells = experiment: Product cytotoxicity (TC50), CCK-8 assay; assay type: cell-based
[11] = test system: SARS-CoV-2 2019-nCoV/USA-WAl/2020; experiment: Antiviral activity in primary human bronchial epithelial cells (HBEpC); assay type: cell-based; settings: 1.1, 3.3 and 10 mg/mL added 1 hour prior to infection, day 4, maximum
[12] = 60 seconds exposure, dilution (-Log10) -6
[13] = 60 seconds exposure, dilution (-Log10) -7
[14] = 60 minutes exposure, dilution (-Log10) -7
[15] = 60 seconds exposure, listed as SPL7013 aqueous solution
[16] = 60 minutes exposure, dilution (-Log10) -6

astodrimer sodium [SPL7013]
binding/infection of Vero E6 cells by spike-pseudotyped lentivirus (GFP-positive cells, FACS) [1]: potently inhibited | TCID50 (log10), CTC (Cytotoxicity Control) (HCT-8 cells): 1.50 log10 | CPE in four replicates, CTC (Cytotoxicity Control) (HCT-8 cells; dilution (-Log10) -2): 0000 | CPE in four replicates, CTC (Cytotoxicity Control) (HCT-8 cells; dilution (-Log10) -3): 0000 | CPE in four replicates, CTC (Cytotoxicity Control) (HCT-8 cells; dilution (-Log10) -4): 0000 | cytotoxicity (Vero E6 cells): not observed | CC50 (Calu-3 cells): 21.76 mg/mL | binding/infection of Vero E6 cells by spike-pseudotyped lentivirus (GFP-positive cells, FACS) [2]: potently inhibited | viral copies (qPCR) in nasal swabs at Day 7 [3]: dose dependent decrease | CPE in four replicates, Test [4, 12]: 0000 | CPE in four replicates, Test [4, 13]: 0000 | Log10 Reduction ([4]; 60 seconds exposure): 0.75 log10 | Percent Reduction ([4]; 60 seconds exposure): 82.22% | TCID50 (log10), Test ([4]; 60 seconds exposure): 5.50 log10 | CPE in four replicates, Test ([4]; 60 minutes exposure, dilution (-Log10) -5): +0+0 | CPE in four replicates, Test [4, 14]: 0000 | Log10 Reduction ([4]; 60 minutes exposure): 0.75 log10 | Percent Reduction ([4]; 60 minutes exposure): 82.22% | TCID50 (log10), Test ([4]; 60 minutes exposure): 5.25 log10 | TCID50 (log10), CTC (Cytotoxicity Control) (Vero cells): 1.50 log10 | CPE in four replicates, CTC (Cytotoxicity Control) (Vero cells; dilution (-Log10) -2): 0000 | CPE in four replicates, CTC (Cytotoxicity Control) (Vero cells; dilution (-Log10) -3): 0000 | CPE in four replicates, CTC (Cytotoxicity Control) (Vero cells; dilution (-Log10) -4): 0000 | EC50 ([5]; added 1 hour post-infection, Vero cells, MOI 0.05, CPE by MTT after 4 days): 0.40 mg/mL | EC50 ([5]; added 1 hour pre-infection, Vero cells, MOI 0.05, CPE by MTT after 4 days): 0.42 mg/mL | EC50 ([5]; pre- and post-infection assays, read-out: EC50): 25 µM and 24 µM | TCID50 (log10), CTC (Cytotoxicity Control) (MRC-5 cells): 1.50 log10 | CPE in four replicates, CTC (Cytotoxicity Control) (MRC-5 cells; dilution (-Log10) -2): 0000 | CPE in four replicates, CTC (Cytotoxicity Control) (MRC-5 cells; dilution (-Log10) -3): 0000 | CPE in four replicates, CTC (Cytotoxicity Control) (MRC-5 cells; dilution (-Log10) -4): 0000 | EC50 [6]: 1.83 µM | hygroscopicity class [7]: very hygroscopic (increase in mass is equal to or greater than 15%) | increase in mass [7]: 21.97% | CPE in four replicates, Test [8, 12]: 0000 | CPE in four replicates, Test [8, 13]: 0000 | Log10 Reduction ([8]; 60 seconds exposure): 0.50 log10 | TCID50 (log10), Test ([8]; 60 seconds exposure): 5.50 log10 | Percent Reduction [8, 15]: 68.38% | CPE in four replicates, Test [8, 16]: +000 | CPE in four replicates, Test [8, 14]: 0000 | Log10 Reduction ([8]; 60 minutes exposure): 0.50 log10 | Percent Reduction ([8]; 60 minutes exposure): 68.38% | TCID50 (log10), Test ([8]; 60 minutes exposure): 5.25 log10 | binding/infection of Vero E6 cells by spike-pseudotyped lentivirus (GFP-positive cells, FACS) [9]: potently inhibited | CPE in four replicates, Test [10, 12]: 0000 | CPE in four replicates, Test [10, 13]: 0000 | Log10 Reduction ([10]; 60 seconds exposure): 0.50 log10 | TCID50 (log10), Test ([10]; 60 seconds exposure): 5.25 log10 | Percent Reduction [10, 15]: 68.38% | CPE in four replicates, Test [10, 16]: 0000 | CPE in four replicates, Test [10, 14]: 0000 | Log10 Reduction ([10]; 60 minutes exposure): 0.75 log10 | Percent Reduction ([10]; 60 minutes exposure): 82.22% | TCID50 (log10), Test ([10]; 60 minutes exposure): 5.00 log10 | TC50, Best Fit Value (Hep-2 cells; Post Treatment): 30.90 mg/mL | TC50, Best Fit Value (Hep-2 cells; PreTreatment): 35.64 mg/mL | reduction of infection in the plaque assay [11]: up to 95% | reduction of infection vs virus control by nucleocapsid ELISA [11]: up to 98%
